Patent US12059230B2, “Extending fluorescent assays in vivo for biomedical sensing: wavelength modulation spectroscopy” (MASSACHUSETTS INSTITUTE OF TECHNOLOGY, priority 2019, dated 2024)

Columns and labels:
[1] = In vitro hydrogel dynamics: sensor response fitted to the diffusion equation; assay type: physicochemical; conditions: 10×10×2 mm^3 gel with 20 mg/l (AC)15-SWNTs, 100 μM riboflavin
Protocol: FIG. 33 depicts in vitro hydrogel dynamics. […] The black curve represents the measured data, while the red line is a fit to the diffusion equation, yielding a diffusion constant of 1.04×10^−6 cm^2/s.
Hydrogel preparation. The nanotube embedded hydrogels were prepared using polyethylene glycol diacrylate from Alfa Aesar using a PEG chain length of 8000 Da (PEG8000DA). The UV triggered initiator was 2-hydroxy-4′-(2-hydroxyethoxy)-2-methylpropiophenone from Sigma Aldrich and was dissolved in a stock solution of 7 mg/mL in water before polymerization. […] The hydrogel precursor solution is held under a flowing N2 atmosphere for 30 minutes to remove dissolved oxygen. After degassing, the solution is pipetted into glass molds and returned to the nitrogen atmosphere. The molds are then exposed to 365 nm UV light (UVP Blak-Ray XX-15BLB) for 45 minutes to polymerize. Afterwards, the hydrogels were removed from the molds and left to incubate in 1×PBS overnight to remove any unreacted monomer to free-floating SWNT. Then the PBS solution was exchanged to a fresh solution and the hydrogels were ready to use.
The interaction between an analyte and the hydrogel sensor is further described with analyte diffusion. The mathematical model solves the following nondimensionalized unsteady diffusion model and boundary conditions: […]

[2] = In vivo sensor response to riboflavin injection in SKH1-E mouse (intraperitoneal implant); conditions: 300 μM riboflavin injected through catheter
Source text: FIGS. 5A-5H depict in vivo sensing. […] Scale bars are 5 mm. […] Sham stands for gels without a sensor, flipped configuration represents a mouse laying on its back with the signal passing through the full thickness of the animal body. […] The scale bar is 5 mm. […] The single laser excitation was at 730 nm. WIFF system was modulated at 2 Hz between 680, 730, and 780 nm. The emission collection was at >1100 nm.
FIGS. 32A-32B depict sensing experiments with mice. […] Five replicas on biologically independent animals. Sensors (10×10×2 mm^3 gel with 20 mg/l (AC)15-SWNTs)) were implanted into the intraperitoneal space of mice. […] The time t=0 corresponds to the time of injection.
The ultimate goal of fluorescent sensing is to detect analytes in vivo at the implantation point and wirelessly transmit the signal to the surface of the body. […] These types of measurements are critical for many biomedical problems focused on tissue permeability, such as targeted delivery of therapeutics, and changes in vascular permeability related to disorders, either as the origin or manifestation of various diseases. […]

Cc1cc2nc3c(=O)[nH]c(=O)nc-3n(C[C@H](O)[C@H](O)[C@H](O)CO)c2cc1C [riboflavin]
diffusion constant in the hydrogel [1]: 1.04×10^−6 cm^2/s
onset time of quenching after the injection [2]: 51 s
sensor quenching ([2]; intraperitoneal sensor, WIFF): 17%
